The results in this text go back to article PMC2736327 (Molecular carcinogenesis, 2009).

In this test the target is autotaxin (ATX) (Homo sapiens, UniProt Q13822). Type of test: biochemical.

As to VPC8a202, the Ki (as a rule, the dissociation constant of the complex between target and ligand, obtained from inhibition or displacement) was around 390 nM.
